Reference: PMC7377239, “Cardiovascular Effects of Polychlorinated Biphenyls and Their Major Metabolites” (Environmental Health Perspectives, 2020)
Where a name gives a salt, the structure may show the parent alone. Read-outs that look alike come from different tables or passages of the source.

Assays:
[1] = test system: iCell endothelial cells (human iPSC-derived ECs); assay: High-content imaging cytotoxicity in iCell endothelial cells, 24 h; assay type: cell-based; details: Homo sapiens, Endothelial cell, iPSC-EC, 24 hr; for viability at 0.1 µM / activity at 0.1 µM: 0.10 µM; for minimal effective concentration: top concentration 100.00 µM
Procedure, shortened: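 Human iPSC-derived endothelial cells (passages 1–5) were grown to a fibronectin-coated monolayer, then exposed 24 h at 37 °C with 0.5% DMSO vehicle. Staining was Hoechst 33342, MitoTracker Orange and calcein AM, read by high-content imaging. Point of departure came from 4-parameter logistic fits, with a 1-SD vehicle cutoff and 100 µM as the top concentration.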

[2] = test system: HUVECs; assay: Tube formation (tubulogenesis) assay in HUVECs, 18 h; assay type: cell-based, human; details: Homo sapiens, HUVEC, 18 h, HUVECs; for activity at 0.1 µM: 0.10 µM; for minimal effective concentration: top concentration 100.00 µM
Procedure, shortened: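 HUVECs (passage 1–5) seeded on reduced-growth-factor basement membrane and exposed to compounds overnight at 37°C, 5% CO2, in 2× maintenance medium with 12.5 ng/mL VEGF; 0.5% DMSO vehicle. Calcein AM-stained tube networks imaged and analysed; vehicle-normalized readouts fit to four-parameter logistic, POD set at one SD of vehicle means.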

[3] = 0.00 µM control = 100.00, read-out: endo.cyto.24hr
[4] = 0.00 µM control = 100.00, read-out: endo.mito.24hr
[5] = 0.00 µM control = 100.00, read-out: endo.mitoint.24hr
[6] = 0.00 µM control = 100.00, read-out: endo.nma.24hr
[7] = 0.00 µM control = 100.00, read-out: endo.tc.24hrs
[8] = 0.00 µM = 100.00, read-out: huvec.mtl.18hr
[9] = 0.00 µM = 100.00, read-out: huvec.tlps.18hr
[10] = 0.00 µM = 100.00, read-out: huvec.tta.18hr
[11] = 0.00 µM = 100.00, read-out: huvec.ttl.18hr

**Q.** Which viability at 0.01 µM [1, 3] does the source give for `O=S(=O)(O)Oc1cccc(-c2ccc(Cl)cc2)c1` [3'-yl PCB 3 sulfate] here?
**A.** 101%

**Q.** What about the activity at 0.01 µM [1, 4] of the same compound?
**A.** 101%

**Q.** And the activity at 0.01 µM [1, 5]?
**A.** 106%

**Q.** What about the activity at 0.01 µM [1, 6] of the same compound?
**A.** 99.3%

**Q.** And the viability at 0.01 µM [1, 7]?
**A.** 101%

**Q.** And the viability at 0.1 µM [1, 3]?
**A.** 93.7%

**Q.** What about the activity at 0.1 µM [1, 4] of the same compound?
**A.** 93.7%

**Q.** What about the activity at 0.1 µM [1, 5] of the same compound?
**A.** 105%

**Q.** And the activity at 0.1 µM [1, 6]?
**A.** 103%

**Q.** And the viability at 0.1 µM [1, 7]?
**A.** 93.7%

**Q.** And the viability at 1 µM [1, 3]?
**A.** 97.2%

**Q.** What about the activity at 1 µM [1, 4] of the same compound?
**A.** 97.2%

**Q.** And the activity at 1 µM [1, 5]?
**A.** 105%

**Q.** What about the activity at 1 µM [1, 6] of the same compound?
**A.** 102%

**Q.** What about the viability at 1 µM [1, 7] of the same compound?
**A.** 97.2%

**Q.** What about the viability at 10 µM [1, 3] of the same compound?
**A.** 98.7%

**Q.** And the activity at 10 µM [1, 4]?
**A.** 98.8%

**Q.** And the activity at 10 µM [1, 5]?
**A.** 111%

**Q.** And the activity at 10 µM [1, 6]?
**A.** 99.5%

**Q.** And the viability at 10 µM [1, 7]?
**A.** 98.7%

**Q.** What about the viability at 100 µM [1, 3] of the same compound?
**A.** 98.5%

**Q.** And the activity at 100 µM [1, 4]?
**A.** 98.5%

**Q.** What about the activity at 100 µM [1, 5] of the same compound?
**A.** 103%

**Q.** And the activity at 100 µM [1, 6]?
**A.** 97.4%

**Q.** What about the viability at 100 µM [1, 7] of the same compound?
**A.** 98.5%

**Q.** What about the minimal effective concentration ([1]; read-out: endo.cyto.24hr POD) of the same compound?
**A.** 100 µM

**Q.** What about the minimal effective concentration ([1]; read-out: endo.mito.24hr POD) of the same compound?
**A.** 100 µM

**Q.** What about the minimal effective concentration ([1]; read-out: endo.mitoint.24hr POD) of the same compound?
**A.** 100 µM

**Q.** And the minimal effective concentration ([1]; read-out: endo.nma.24hr POD)?
**A.** 100 µM

**Q.** And the minimal effective concentration ([1]; read-out: endo.tc.24hrs POD)?
**A.** 100 µM

**Q.** And the activity at 0.01 µM [2, 8]?
**A.** 106%

**Q.** What about the activity at 0.01 µM [2, 9] of the same compound?
**A.** 119%

**Q.** What about the activity at 0.01 µM [2, 10] of the same compound?
**A.** 121%

**Q.** And the activity at 0.01 µM [2, 11]?
**A.** 112%

**Q.** What about the activity at 0.1 µM [2, 8] of the same compound?
**A.** 110%

**Q.** And the activity at 0.1 µM [2, 9]?
**A.** 121%

**Q.** And the activity at 0.1 µM [2, 10]?
**A.** 141%

**Q.** And the activity at 0.1 µM [2, 11]?
**A.** 142%

**Q.** And the activity at 1 µM [2, 8]?
**A.** 111%

**Q.** What about the activity at 1 µM [2, 9] of the same compound?
**A.** 129%

**Q.** What about the activity at 1 µM [2, 10] of the same compound?
**A.** 141%

**Q.** And the activity at 1 µM [2, 11]?
**A.** 137%

**Q.** And the activity at 10 µM [2, 8]?
**A.** 97.5%

**Q.** What about the activity at 10 µM [2, 9] of the same compound?
**A.** 141%

**Q.** What about the activity at 10 µM [2, 10] of the same compound?
**A.** 104%

**Q.** What about the activity at 10 µM [2, 11] of the same compound?
**A.** 102%

**Q.** And the activity at 100 µM [2, 8]?
**A.** 58%

**Q.** What about the activity at 100 µM [2, 9] of the same compound?
**A.** 37.8%

**Q.** And the activity at 100 µM [2, 10]?
**A.** 52.3%

**Q.** What about the activity at 100 µM [2, 11] of the same compound?
**A.** 58.3%

**Q.** And the minimal effective concentration ([2]; read-out: huvec.mtl.18hr POD)?
**A.** 15.5 µM

**Q.** What about the minimal effective concentration ([2]; read-out: huvec.tlps.18hr POD) of the same compound?
**A.** 100 µM

**Q.** What about the minimal effective concentration ([2]; read-out: huvec.tta.18hr POD) of the same compound?
**A.** 100 µM

**Q.** What about the minimal effective concentration ([2]; read-out: huvec.ttl.18hr POD) of the same compound?
**A.** 100 µM
